According to US9107876B2, “Surface anesthetic agent” (YAMAGUCHI UNIVERSITY, priority 2009, dated 2015):

System: buccal mucosal membrane
Test: Needle stab after applying the surface anesthetic agent to the buccal mucosal membrane: time for the painless effect to be exerted
Type: in vivo
Conditions: 200 mg applied with a cotton swab to the buccal mucosal membrane, then a needle stabbed
Method: Various surface anesthetic agents mentioned above were applied to the buccal mucosal membrane, and then a needle was stabbed, and the time for the painless effect to be exerted and the time for the pain to start again were measured.
(1) As a sample of tetracaine alone, 200 mg (12 mg tetracaine) COPALON was attached to a cotton swab, and applied to the buccal mucosal membrane.
(2) As a sample of lidocaine alone, 200 mg Xylocaine jelly (4 mg lidocaine) was attached to a cotton swab, and applied to the buccal mucosal membrane.
(3) As a sample of a combination use of tetracaine and lidocaine, various mixtures of tetracaine and lidocaine in 92:8, 82:18, 67:33 and 43:57 mass ratios were prepared by varying the blending ratio of COPALON and Xylocaine jelly to 80:20, 60:40, 40:60 and 20:80. 200 mg of each of the prepared mixtures was attached to a cotton swab, and applied to the buccal mucosal membrane. […]
Various surface anesthetic agents containing tetracaine and/or lidocaine mentioned above were applied to the buccal mucosal membrane, and then a needle was stabbed, and the time for the painless effect to be exerted and the time for the pain to start again were measured.

CCN(CC)CC(=O)Nc1c(C)cccc1C [Comparative Example 1-2, 2-(diethylamino)-N-(2,6-dimethylphenyl) acetamide]
time for the painless effect to be exerted after the application: 5 min
